In patent publication US20170253607A1, “LONG-ACTING HIV PROTEASE INHIBITOR” (Shionogi & Co., Ltd., priority 2014, published 2017):

Target: HIV-1 PR (Human immunodeficiency virus type 1 group M subtype B, UniProt P04585)
Test: HIV-protease inhibitory activity assay (FRET peptide substrate)
Format: biochemical
Conditions: Test Example 1
Experimental: Test Example 1: HIV-Protease Inhibitory Activity Assay
The HIV-1 PR assay was performed by using a FRET (Fluorescence Resonance Energy Transfer) peptide substrate (AnaSpec, Inc., Fremont, Calif.). Initially in the intact FRET peptide, the fluorescence of HiLyte Fluor 488 is quenched by QXL 520. Upon substrate cleavage by PR, the fluorescence is recovered and can be monitored. Test compounds diluted in DMSO was plated to the wells of 384-well plate. Then, mixed with assay buffer (0.1 mol/L NaAc containing 0.5 mol/L NaCl, 1 mmol/L EDTA, 1 mmol/L DTT, and 0.05% Tween 20, pH 4.8) in the presence or absence of HIV-1 PR (0.83 ng), and let it stand for 5 minutes at room temperature. Background fluorescence intensity was measured and let it stand for another 15 minutes at room temperature. The enzyme reaction was started by adding substrate diluted in assay buffer at final concentration of 2 μmol/L, and let it stand for 60 minutes at room temperature. After 60 minutes, the fluorescence intensity was measured. Fluorescence intensity was measured with excitation and emission wavelengths of 485 nm and 535 nm, respectively.
IC50 values were determined using non-linear regression four-parameter logistic equation, y=A+((B−A)/(1+((C/x)̂D))) where A=minimum inhibition, B=maximum inhibition, C=log IC50, D=slope factor, x=concentration of compound and y=% inhibition.

`COc1ccc(S(=O)(=O)N(CC(C)C)CC(O)C(Cc2ccc(NCc3ccccc3-c3csc4c(C(=O)O)cccc34)cc2)NC(=O)OC2COC3(C)OCCC23)cc1` (centres unmarked) [Compound I-898] showed an IC50 of 1.78 nM.

`COc1ccc(S(=O)(=O)N(CC(C)C)CC(O)C(Cc2ccc(OCc3cccc(-c4sc5c(c4C(=O)O)CC(C)(C)CC5)c3C)cc2)NC(=O)OC2COC3(C)OCCC23)cc1` (centres unmarked) [Compound I-92] was tested, and the IC50 was 1.88 nM.

Work on `COc1ccc(S(=O)(=O)N(CC(C)C)CC(O)C(Cc2ccc(NCc3cc(C(=O)O)c(C)o3)cc2)NC(=O)OC2COC3(C)OCCC23)cc1` (centres unmarked) [Compound I-317] yielded an IC50 of 1.86 nM.

For `COc1ccc(S(=O)(=O)N(CC(C)C)CC(O)C(Cc2ccc(OCC3CCCCC3Nc3ccc(C#N)cc3-c3sc4c(c3C(=O)O)CC(C)(C)CC4)cc2)NC(=O)OC2COC3(C)OCCC23)cc1` (centres unmarked) [Compound I-259], the IC50 was 10.9 nM.

`COc1ccc(S(=O)(=O)N(CC(C)C)CC(O)C(Cc2ccc(N(C)Cc3cc(N4CC(C)(C)C4=O)ccc3-c3sc4c(c3C(=O)O)CC(C)(C)CC4)cc2)NC(=O)OC2COC3(C)OCCC23)cc1` (centres unmarked) [Compound I-730] was tested, and the IC50 was 2.84 nM.

For `COc1ccc(S(=O)(=O)N(CC(C)C)CC(O)C(Cc2ccc(N(CCC(C)C)Cc3ccccc3-c3sc4c(c3C(=O)O)CC(C)(C)CC4)cc2)NC(=O)OC2COC3(C)OCCC23)cc1` (centres unmarked) [Compound I-461], the IC50 was 7.09 nM.

Molecule `COc1ccc(S(=O)(=O)N(CC(C)C)CC(O)C(Cc2ccc(NCc3ccccc3-c3c(C(=O)O)[nH]c4cc(Cl)cc(Cl)c34)cc2)NC(=O)OC2COC3(C)OCCC23)cc1` (centres unmarked) [Compound I-633] has an IC50 of 2.48 nM.

In the case of `COc1ccc(S(=O)(=O)N(CC(C)C)CC(O)C(Cc2ccc(N3Cc4nc5ccccc5cc4C3=O)cc2)NC(=O)OC2COC3OCCC23)cc1` (centres unmarked) [Compound I-888], the IC50 is reported as 2.1 nM.

`COc1ccc(S(=O)(=O)N(CC(C)C)CC(O)C(Cc2ccc(N(Cc3ccccc3-c3sc4c(c3C(=O)O)CC(C)(C)CC4)C(C)=O)cc2)NC(=O)OC2COC3(C)OCCC23)cc1` (centres unmarked) [Compound I-339] showed an IC50 of 1.83 nM.

In the case of `COc1ccc(S(=O)(=O)N(CC(C)C)CC(O)C(Cc2ccc(N(C)Cc3ccc(N4CC(C)(C)C4=O)cc3-c3sc4c(c3C(=O)O)CC(C)(C)CC4)cc2)NC(=O)OC2COC3(C)OCCC23)cc1` (centres unmarked) [Compound I-750], the IC50 is reported as 4.6 nM.

`COc1ccc(S(=O)(=O)N(CC(C)C)C[C@@H](O)[C@H](Cc2ccc(NC(=O)Nc3sc4c(c3C(=O)O)CC(C)(C)CC4)cc2)NC(=O)O[C@H]2CO[C@@]3(C)OCC[C@@H]23)cc1` [Compound I-192] was tested, and the IC50 was 2.27 nM.

`COc1ccc(S(=O)(=O)N(CC(C)C)CC(O)C(Cc2ccc(N(C)CC3COCCC3c3sc4c(c3C(=O)O)CC(C)(C)CC4)cc2)NC(=O)OC2COC3(C)OCCC23)cc1` (centres unmarked) [Compound I-400] showed an IC50 of 1.69 nM.

Work on `COc1ccc(S(=O)(=O)N(CC(C)C)CC(O)C(Cc2ccc(N3CC4CC(Oc5ccccc5-c5sc6c(c5C(=O)O)CC(C)(C)CC6)CC4C3)cc2)NC(=O)OC2COC3(C)OCCC23)cc1` (centres unmarked) [Compound I-508] yielded an IC50 of 8.48 nM.

Molecule `COc1ccc(S(=O)(=O)N(CC(C)C)CC(O)C(Cc2ccc(N(C)CC3=C(c4sc5c(c4C(=O)O)CC(C)(C)CC5)CCC(F)(F)C3)cc2)NC(=O)OC2COC3OCCC23)cc1` (centres unmarked) [Compound I-881] has an IC50 of 5.89 nM.

Molecule `COc1ccc(S(=O)(=O)N(CC(C)C)CC(O)C(Cc2ccc(N(C)Cc3nc(N4CCN(C)CC4)sc3-c3sc4c(c3C(=O)O)CC(C)(C)CC4)cc2)NC(=O)OC2COC3(C)OCCC23)cc1` (centres unmarked) [Compound I-758] has an IC50 of 1.62 nM.

With `CC1(C)CCc2sc(-c3ccc(C(F)(F)F)cc3CNc3ccc(CC(NC(=O)OC4COC5OCCC45)C(O)CN(CC4CCC4)S(=O)(=O)c4ccc5ncsc5c4)cc3)c(C(=O)O)c2C1` (centres unmarked) [Compound I-872] the IC50 was 4.99 nM.

`COc1ccc(S(=O)(=O)N(CC(C)C)CC(O)C(Cc2ccc(OCc3cc(Cc4ccc(F)cc4)cnc3C(=O)O)cc2)NC(=O)OC2COC3(C)OCCC23)cc1` (centres unmarked) [Compound I-308] showed an IC50 of 1.91 nM.

`COc1ccc(S(=O)(=O)N(CC(C)C)CC(O)C(Cc2ccc(NCc3ccc(-c4sc5c(c4C(=O)O)CC(C)(C)CC5)o3)cc2)NC(=O)OC2COC3(C)OCCC23)cc1` (centres unmarked) [Compound I-288] was tested, and the IC50 was 2.19 nM.

With `COc1ccc(S(=O)(=O)N(CC(C)C)CC(O)C(Cc2ccc(OCc3ccccc3-c3ccc4c(c3)C(=O)C(c3ccc(F)cc3)C4=O)cc2)NC(=O)OC2COC3(C)OCCC23)cc1` (centres unmarked) [Compound I-70] the IC50 was 1.06 nM.

`COc1ccc(S(=O)(=O)N(CC(C)C)C[C@@H](O)[C@H](Cc2ccc(NCC(=O)Nc3sc4c(c3C(=O)O)CC(C)(C)CC4)cc2)NC(=O)OC2CO[C@@]3(C)OCC[C@@H]23)cc1` (some centres unmarked) [Compound I-593] was tested, and the IC50 was 1.71 nM.

For `COc1ccc(S(=O)(=O)N(CC(C)C)C[C@@H](O)[C@H](Cc2ccc(COc3ccccc3-c3sc4c(c3C(=O)O)CC(C)(C)CC4)cc2)NC(=O)O[C@H]2CO[C@@]3(C)OCC[C@@H]23)cc1` [Compound I-4], the IC50 was 1.69 nM.

`COc1ccc(S(=O)(=O)N(CC(C)C)CC(O)C(Cc2ccc(NCc3ccc(-c4sc5c(c4C(=O)O)CC(C)(C)CC5)c(OC)c3)cc2)NC(=O)OC2COC3(C)OCCC23)cc1` (centres unmarked) [Compound I-554] gave an IC50 of 1.77 nM.

Molecule `COc1ccc(S(=O)(=O)N(CC(C)C)CC(O)C(Cc2ccc(NCC3(c4ccc(-c5sc6c(c5C(=O)O)CC(C)(C)CC6)cc4)CCCC3)cc2)NC(=O)OC2COC3(C)OCCC23)cc1` (centres unmarked) [Compound I-340] has an IC50 of 5.6 nM.

For `COc1ccc(S(=O)(=O)N(CC(C)C)CC(O)C(Cc2ccc(N(C)CC3CCCCC3C(=O)Nc3sc4c(c3C(=O)O)CC(C)(C)CC4)cc2)NC(=O)OC2COC3(C)OCCC23)cc1` (centres unmarked) [Compound I-616], the IC50 was 4.2 nM.

In the case of `CC(C)CN(CC(O)C(Cc1ccc(NCc2ccccc2C(=O)Nc2sc3c(c2C(=O)O)CC(C)(C)CC3)cc1)NC(=O)OC1COC2OCCC12)S(=O)(=O)c1ccc2ncsc2c1` (centres unmarked) [Compound I-855], the IC50 is reported as 2.66 nM.

For `CCN(C(=O)Nc1ccccc1-c1sc2c(c1C(=O)O)CC(C)(C)CC2)c1ccc(CC(NC(=O)OC2COC3(C)OCCC23)C(O)CN(CC(C)C)S(=O)(=O)c2ccc(OC)cc2)cc1` (centres unmarked) [Compound I-377], the IC50 was 5.4 nM.

Work on `COc1ccc(S(=O)(=O)N(CC(C)C)CC(O)C(Cc2ccc(NCc3ccc(-c4ccc(-c5sc6c(c5C(=O)O)CC(C)(C)CC6)cc4)cc3)cc2)NC(=O)OC2COC3(C)OCCC23)cc1` (centres unmarked) [Compound I-285] yielded an IC50 of 7.76 nM.

With `COc1ccc(S(=O)(=O)N(CC(C)C)CC(O)C(Cc2ccc(OCC3COCC3c3sc4c(c3C(=O)O)CC(C)(C)CC4)cc2)NC(=O)OC2COC3(C)OCCC23)cc1` (centres unmarked) [Compound I-394] the IC50 was 1.64 nM.

`COc1ccc(S(=O)(=O)N(CC(C)C)CC(O)C(Cc2ccc(OC3CN(c4ccc(-c5sc6c(c5C(=O)O)CC(C)(C)CC6)cc4)C3)cc2)NC(=O)OC2COC3(C)OCCC23)cc1` (centres unmarked) [Compound I-361] gave an IC50 of 6.22 nM.

For `COc1ccc(S(=O)(=O)N(CC(C)C)C[C@@H](O)[C@H](Cc2ccc(NCc3sc4c(c3C(=O)O)CC(C)(C)CC4)cc2)NC(=O)O[C@H]2CO[C@@]3(C)OCC[C@@H]23)cc1` [Compound I-14], the IC50 was 1.7 nM.

`COc1ccc(S(=O)(=O)N(CC(C)C)CC(O)C(Cc2ccc(Oc3ccc(-c4sc5c(c4C(=O)O)CC(C)(C)CC5)c(C(F)(F)F)c3)cc2)NC(=O)OC2COC3(C)OCCC23)cc1` (centres unmarked) [Compound I-135] was tested, and the IC50 was 6.8 nM.

In the case of `COc1ccc(S(=O)(=O)N(CC(C)C)CC(O)C(Cc2ccc(CN(C)c3cccc(-c4sc5c(c4C(=O)O)CC(C)(C)CC5)c3)cc2)NC(=O)OC2COC3(C)OCCC23)cc1` (centres unmarked) [Compound I-264], the IC50 is reported as 3.53 nM.

For `COc1ccc(S(=O)(=O)N(CC(C)C)CC(O)C(Cc2ccc(NCc3ccc(C)cc3C(=O)Nc3sc4c(c3C(=O)O)CC(C)(C)CC4)cc2)NC(=O)OC2COC3(C)OCCC23)cc1` (centres unmarked) [Compound I-716], the IC50 was 3.95 nM.

For `COc1ccc(S(=O)(=O)N(CC2CC2)CC(O)C(Cc2ccc(NCc3ccccc3-c3sc4c(c3C(=O)O)CC(C)(C)CC4)cc2)NC(=O)OC2COC3(C)OCCC23)cc1` (centres unmarked) [Compound I-472], the IC50 was 2.27 nM.

With `COc1ccc(S(=O)(=O)N(CC(C)C)CC(O)C(Cc2ccc(Oc3ccc(C(=O)O)c(-c4ccc(F)cc4F)c3)cc2)NC(=O)OC2COC3(C)OCCC23)cc1` (centres unmarked) [Compound I-155] the IC50 was 1.37 nM.

Work on `COc1ccc(S(=O)(=O)N(CC2CCCC2)CC(O)C(Cc2ccc(OCc3ccccc3-n3nc(C(=O)O)c4c3CCC(C(F)(F)F)C4)cc2)NC(=O)OC2COC3(C)OCCC23)cc1` (centres unmarked) [Compound I-141] yielded an IC50 of 1.74 nM.

In the case of `COc1ccc(S(=O)(=O)N(CC(C)C)CC(O)C(Cc2ccc(NCc3cc4ccccc4cc3NC(=O)c3sc4c(c3C(=O)O)CC(C)(C)CC4)cc2)NC(=O)OC2COC3(C)OCCC23)cc1` (centres unmarked) [Compound I-612], the IC50 is reported as 2.11 nM.

With `COc1ccc(S(=O)(=O)N(CC(C)C)CC(O)C(Cc2ccc(N(C)Cc3cc(-c4sc5c(c4C(=O)O)CC(C)(C)CC5)cc4ccccc34)cc2)NC(=O)OC2COC3(C)OCCC23)cc1` (centres unmarked) [Compound I-703] the IC50 was 4.6 nM.

`COc1ccc(S(=O)(=O)N(CC(C)C)CC(O)C(Cc2ccc(N(C)Cc3ccc(Oc4ccc(-c5sc6c(c5C(=O)O)CC(C)(C)CC6)c(C)c4)cc3)cc2)NC(=O)OC2COC3(C)OCCC23)cc1` (centres unmarked) [Compound I-572] gave an IC50 of 30 nM.

With `CC(C)CN(CC(O)C(Cc1ccc(OCc2cc(-c3ccc(F)cc3F)ccc2C(=O)O)cc1)NC(=O)OC1COC2(C)OCCC12)S(=O)(=O)c1ccc2ncsc2c1` (centres unmarked) [Compound I-61] the IC50 was 1.9 nM.

`COC(=O)NC(C(=O)NC(Cc1ccccc1)C(O)CN(Cc1ccc(-c2ccc(-c3sc4c(c3C(=O)O)CC(C)(C)CC4)cc2)cc1)NC(=O)C(NC(=O)OC)C(C)(C)C)C(C)(C)C` (centres unmarked) [Compound I-900] was tested, and the IC50 was 2.9 nM.
